This test has as its system HGFIN mRNA in bone marrow stroma. In words: Northern analysis of HGFIN mRNA in stimulated bone marrow stroma. In kind it is cell-based, human. The following applies: bone marrow stroma vs unstimulated. As for the experimental part: Cell Stimulation. Peripheral blood mononuclear cells (PBMC) were resuspended in RPMI 1640 containing 2% FCS at 10^6/ml. Cell suspension, 10 ml, was stimulated with 1 μg/ml of LPS. bone marrow stroma was stimulated in sera-free α-MEM (Sigma) with the following: 10 μg/ml SCF, 5 ng/ml IL-11, 5 U/ml […], 5 ng/ml […], 25 ng/ml NGF and […]. Dose-response curves with slot blots for HGFIN mRNA determined the optimal concentration of each stimulus. During stromal cell stimulation, culture media were supplemented with insulin-transferring-selenium-A (Life Technologies, Grand Island, N.Y.). In both types of cells, controls included parallel cultures in similar media. At 8 hours and 16 hours, total RNA was extracted from each experimental point and control and then analyzed by northern analyses for HGFIN mRNA.
Northern Analysis. Northern analysis for steady state HGFIN mRNA was performed as described (Rameshwar, et al. (1997) J. Immunol. 158:3417-3424). Total RNA was extracted from the experimental cells and 10 μg from each was separated in 1.2% agarose. RNA was transferred to nylon membranes (S & S NYTRAN, Keene, N.H.) and then hybridized with [α-^32P]-dATP-labeled cDNA probes specific for HGFIN or Id2. Membranes were stripped and then reprobed with cDNA for 18S rRNA. Probes were randomly labeled with [α-^32P]-dATP, 3000 Ci/mM, (Dupont/NEN, Boston, Mass.) using the PRIME-IT II random primer kit (Stratagene). The membrane was placed in a PHOSPHOIMAGER cassette (Molecular Dynamics, Sunnyvale, Calif.) and then scanned at different times beginning at 6 hours to 24 hours on a PHOSPHOIMAGER (Molecular Dynamics). Negative results were not attributed to the lack of total RNA on the membrane since each was hybridized with a cDNA probe for 18S rRNA.
The mesenchymal/stromal cells of the bone marrow produce most of the necessary soluble regulators that modulate bone marrow organ functions (Muller-Sieburg & Deryugina (1995) supra). Since HGFIN expression was altered in activated PBMC, the next set of studies examined the role of HGFIN in activated bone marrow stroma. The following stimulators were used: cytokines, SCF, IL-11, IL-1(α, β) and IL-6 and a neurotrophic factor, NGF. […] Densitometric scans were normalized with 18S rRNA and the fold (mean±SD) increase over unstimulated stroma was determined. […] However, together, the levels of HGFIN mRNA in the cytokine-stimulated cultures were much less than in stroma stimulated with NGF.

As for SCF: Stem cell factor, cytokine, the “HGFIN mRNA induction” value is given as “induced”.
Take IL-6: cytokine: the “HGFIN mRNA induction” value is listed as “induced”.
Under “NGF: nerve growth factor, a neurotrophic factor” stands “induced”.

B1: IL-11: cytokine (protein, UniProt P20809 22-199, looked up)
Interleukin-11: PGPPPGPPRVSPDPRAELDSTVLLTRSLLADTRQLAAQLRDKFPADGDHNLDSLPTLAMSAGALGALQLPGVLTRLRADLLSYLRHVQWLRRAGGSSLKTLEPELGTLQARLDRLLRRLQLLMSRLALPQPPPDPPAPPLAPPSSAWGGIRAAHAILGGLHLTLDWAVRGLLLLKTRL
Turning to B1, the “HGFIN mRNA induction” value was “induced”.

Values taken from patent publication US8383806B2, “Method of reversing carboplatin resistance by inhibition of HGFIN” (University of Medicine and Dentistry of New Jersey, priority 2000, dated 2013).
